Data set [1] deals with platelets. Particulars: platelets cryopreserved with DMSO; cited from earlier work.
For data set [2], the system named is erythrocyte membranes. In words: FTIR membrane phase transitions of intact erythrocytes (CH2 symmetric stretch around 2850 cm^-1).
For data set [3], the system named is mesenchymal stem cells. In words: Lucifer yellow CH loading of mesenchymal stem cells, viability by trypan blue exclusion. Particulars: LYCH loading over 3.5 hours, 37° C. The data set is classed as cell-based, human. The text has this: Lucifer Yellow CH-Loading. […] The pellet was split between two treatments.
The test system of data set [4] is human platelets. Nature of the data set: Loading of platelets with trehalose, quantified by anthrone reaction. In kind it is cell-based. Particulars: 37° C., after 2 hours (rapid linear uptake). Here is the method: Loading of Platelets with Trehalose. Washed platelets in a concentration of 1-2 10^9 platelets/ml were incubated at various temperatures in the presence of 1-20 mg/ml trehalose. Incubation temperatures were chosen from 4° C. to 37° C. Incubation times were varied from 0.5 to 4 hours. After incubation the platelet solutions were washed in buffer A two times (by centrifugation at 14,000 RPM for 20 s in a table centrifuge). Platelet counts were obtained on a coulter counter. Platelets were pelleted (45 S at 14,000 RPM) and sugars were extracted from the pellet using 80% methanol. The samples were heated for 30 minutes at 80° C. […] The amount of trehalose in the platelets was quantified using the anthrone reaction (Umbreit et al., Mamometric and Biochemical Techniques, 5th Edition, 1972). […] Then the samples were cooled on ice and the absorbance was measured at 620 nm on a Perkin Elmer spectrophotometer. The amount of platelet associated trehalose was determined using a standard curve of trehalose.
Quantification of Trehalose and LYCH Concentration. Uptake was calculated for each sample as micrograms of trehalose or LYCH per platelet. The internal trehalose concentration was calculated assuming a platelet radius of 1.2 μm and by assuming that 50% of the platelet volume is taken up by the cytosol (rest is membranes). […]

Data set [5] has as its system platelets. Nature of the data set: Stability and morphology of platelets during trehalose incubation (microscopy, flow cytometric analysis). The data set is classed as cell-based, human. The conditions noted are these: 4 hours incubation at 37° C., 25 mM external trehalose. The method, then: The stability of the platelets during a 4 hours incubation period was studied using microscopy and flow cytometric analysis. […] No signs of microvesicle formation could be observed after 4 hours incubation, as can be judged by the stable relative proportion of microvesicle gated cells (less than 3%). The formation of microvesicles is usually considered as the first sign of platelet activation (Owners et al., Trans. Med. Rev., 8, 27-44, 1994). Characteristic antigens of platelet activation include: glycoprotein 53 (gp53, a lysosomal membrane marker), PECAM-1 (platelet endothelial cell adhesion molecule-1, an alpha granule constituent), and P-selection (an alpha granule membrane protein).
In general terms: A flow cytometer gives signals particle by particle.

In data set [6] the test system is mesenchymal stem cells. In words: Growth curves of mesenchymal stem cells in presence of 90 mM trehalose. The data set is classed as cell-based, human. The method, then: Growth Curves. MSCs were plated into 12-welled plates at approximately the same seeding density used for T-185 flasks in standard Osiris protocols (5900 cells/cm^2 with fluid volume of 0.189 mL/cm^2). Three wells for each condition at each time point were trypsinized and counted. Data for cells grown in the presence of trehalose were lost for the first two time points. FIG. 13 is a graph illustrating growth curves for the mesenchymal stem cells in the presence or absence of 90 mM trehalose with the open triangle data representing cells grown in standard medium for 24 hours, after which 90 mM trehalose was added.

Data set [7] deals with erythrocyte ghosts. Nature of the data set: FTIR thermotropic response of erythrocyte ghosts. The data set is classed as cell-based, human. The conditions noted are these: MβCD treated ghosts. Here is the method:
Cells were incubated at 37° C. for one hour in the presence of 10 mM methyl-β-cyclodextrin (MβCD) in order to remove cholesterol from the plasma membranes. Erythrocyte ghosts were prepared.
FTIR Spectroscopy and Sample Preparation. […] Intact cells were cooled to −5° C., kept at this temperature for 15 minutes, and then rewarmed to determine the phase transitions. […] Four scans were accumulated for each spectrum between 3600-900 cm^−1 at 4 cm^−1 resolution.
Inverted second derivative spectra were normalized on the lipid […] 2850 cm^−1. Band positions were determined as described previously. The wavenumber (cm^−1) of the CH2 symmetric stretching vibration was plotted as a function of temperature. […] For the protein studies, the spectral region between 1600 and 1500 cm^−1 selected.

[8] abbreviates: Table III, Example 11, five blood donors, standard error, 10 mM MβCD.

We go through five compounds from patent US6770478B2, “Erythrocytic cells and method for preserving cells” (The Regents of the University of California, priority 2000, dated 2004).

Where “and” joins values, the source holds several entries; their conditions need not be identical. Identical values can stand only once. Entries after “also recorded” stand apart in the source; their conditions may differ.

With `C[S+](C)[O-]` [DMSO, dimethyl sulfoxide], the “overall responsiveness of frozen thawed platelets to various agonists compared with fresh platelets” value in data set [1] is reported as “less than 35%”.
Turning to `CC(C)c1c(C(=O)Nc2ccccc2)c(-c2ccccc2)c(-c2ccc(F)cc2)n1CC[C@@H](O)C[C@@H](O)CC(=O)O` [LIPITOR], in data set [2] (erythrocytes of a blood donor who used LIPITOR, other donors 0.8), the “total wavenumber excursion (from −5 to 45° C.)” value was about 1.5 cm⁻¹.
For the compound `NNC(=O)NN1C(=O)c2cc(S(=O)(=O)O)cc3c(N)c(S(=O)(=O)O)cc(c23)C1=O` [LYCH, lucifer yellow CH], the viability in data set [3] is recorded as about 70%.
`OC[C@H]1O[C@H](O[C@H]2O[C@H](CO)[C@@H](O)[C@H](O)[C@H]2O)[C@H](O)[C@@H](O)[C@@H]1O` [trehalose]: in data set [4], the trehalose uptake is on record as 3.3×10^−10 mol/m^2s. Further, in data set [5], the “morphological changes of platelets” value is “No morphological changes”. For the same compound, in data set [6] (after the third day), the “effect on cell count” value is given as “cell count started to drop significantly”. For the same compound, the “effect on growth of the cells” value in data set [6] (up to the third day) was “did not interfere with growth; also recorded: does not interfere with the growth and viability”.
Regarding methyl-β-cyclodextrin [MβCD], in data set [7], the “transition temperature, first transition” value amounted to 4 °C; the “transition temperature, fourth transition” value came out at 30 °C; the “transition temperature, second transition” value worked out at 12 °C; the “transition temperature, third transition” value worked out at 20 °C. The “wavenumber excursion from −5 to 45° C.” value in data set [2] (Example 10, after cholesterol removal (control 0.7)) was found to be 2.9 cm⁻¹. The “wavenumber excursion from −5 to 45° C.” value in data set [2] (Example 11, after cholesterol removal (control 0.7)) amounted to 2.9 cm⁻¹. Moreover, the “Cooperativity, Low Transition” value in data set [2] (Table II, Example 10, 1 mM MβCD, 37° C., one hour) is 0.051 ± 0.004 cm^−1/° C. In addition, in data set [2] (setting [8]), the “Cooperativity, High Transition” value was 0.091 cm^−1/° C. and 0.091 ± 0.020 cm^−1/° C; the “Cooperativity, Low Transition” value worked out at 0.051 ± 0.004 cm^−1/° C; the “Cooperativity, Middle Transition” value is 0.095 cm^−1/° C. and 0.095 ± 0.015 cm^−1/° C; the “Transition Temperature, High Transition” value is 35 °C and 35.4 ± 1.5 °C. In data set [2] (setting [8]), the “Transition Temperature, Low Transition” value was 15 °C and 15.3 ± 0.8 °C; the “Transition Temperature, Middle Transition” value was 26 °C and 26.0 ± 0.8 °C.

As a reminder, the viability is a per cent measure of how many cells are alive, often set against a control. A low value points to a greater loss of cells.
